# Test results taken from patent US6800727B2, “Peptides with increased + charge and hydrophobicity by substituting one or more amino acids of CA-MA peptide and pharmaceutical compositions containing thereof” (Chosun University, priority 2001, dated 2004).
# Residues, ends and D or L forms follow the SMILES beside them.
# Key:
# [1] = Acute toxicity test in rat via non-oral administration; assay type: in vivo; conditions: SD, in vivo, 1 g/kg/15 ml, intravenous, read-out: level up to which no toxic change is caused
# Procedure: (§1) The following experiments were performed to see if the synthetic peptide of the present invention has acute toxicity in rat.
# (§2) 6-week old SPF SD line rats were used in the tests for acute toxicity. Synthetic peptide of the present invention represented by the SEQ. ID. NO: 2 was suspended in 0.5% methyl cellulose solution and intravenous injected once to 2 rats per group at the dosage of 1 g/kg/15 ml. Death, clinical symptoms, and weight change in rats were observed, hematological tests and biochemical tests of blood were performed, and any abnormal signs in the gastrointestinal organs of chest and abdomen were checked with eyes during autopsy.
# SPF SD line rats = test: as above; assay type: in vivo; conditions: single intravenous injection, 1 g/kg/15 ml in 0.5% methyl cellulose
# Procedure: as §1, §2
# Bacillus subtilis [2] = test: Visualization of anti-bacterial activity, colonies on LB plate; assay type: cell-based; conditions: 4×10^5 B. subtilis cells, 1 μM peptide, 2 hours at 37° C.; FIG. 1
# Procedure: (§3) In order to visualize the antibiotic activity of the synthetic peptide of the present invention on the plate, Pseudomonas aeruginosa and Bacillus subtilis were inoculated in LB medium (1% bacto trypton, 0.5% yeast extract, 1% sodium chloride), and cultured to mid-log phase. Particularly, 4×10^5 P. aeruginosa cells were loaded into the medium, and 4 μM of synthetic peptide was added thereto. 4×10^5 B. subtilis cells were also loaded into the medium, and 1 μM of synthetic peptide was added thereto. After culturing for 2 hours at 37° C., the culture fluid was smeared on LB plate to visualize the cells. At this time, CA-MA peptide was used as a comparative group.
# [3] = tested on: Jurkat (a T-cell lymphoma cell line); test: Anticancer activity, MTT assay; assay type: cell-based
# Procedure: (§4) In order to measure the anticancer activity of the synthetic peptide of the present invention, the present inventors performed MTT assay with Calu-6 (a human lung cancer cell line), SNU 601 (a human stomach cancer cell line) and Jurkat (a T-cell lymphoma cell line) cells. Firstly, 90 μl of each cell line (2×10^5 cells/ml) was loaded into each well of 96-well plate. At this time, only medium contained wells were used as a control. After shaking well, the cells were cultured in CO2 incubator for 3 days. Formazan produced by mitochondria enzymes of living cells was dissolved in 100 μl of 0.04 N HCl-isopropanol, and finally, OD540 was measured by using ELISA reader. The anti-cancer activity of antibiotic peptide of the present invention was represented by a percentage (OD of synthetic peptide treated well/OD of control×100).
# [4] = tested on: SNU 601 (a human stomach cancer cell line); test: Anticancer activity, MTT assay; assay type: cell-based; conditions: for anti-cancer activity: SNU 601
# Procedure: as §4
# [5] = tested on: Calu-6 (a human lung cancer cell line); test: Anticancer activity, MTT assay; assay type: cell-based; conditions: for anti-cancer activity: Calu-6
# Procedure: as §4
# [6] = tested on: Bacillus subtilis (KCTC 1918); test: MIC measurement, anti-bacterial activity; assay type: cell-based; conditions: summary of the strains of Table 1
# Procedure: In order to measure the anti-bacterial activity of the peptide synthesized in Example 1, minimum inhibitory concentration (MIC) of the peptide was measured.
# The present inventors used Bacillus subtilis (KCTC 1918) and Staphylococus epidermidis (KCTC 1917) as Gram-positive bacteria, and Pseudomonas aeruginosa (KCTC 1637) and Salmonella typhimurium (KCTC 1926) as Gram-negative bacteria for this experiment. All the bacteria used in this experiment were given by Korea Research Institute of Bioscience and Biotechnology (KRIBB). Each bacterial strain was cultured in LB medium(1% bacto-trypton, 0.5% bacto-yeast extract, 1% sodium chloride) to the mid-log phase, and diluted with 1% bacto-peptone medium at the concentration of 1×10^4 cells/100 μl. The diluted bacteria were loaded into micro-titrate plate. Antibiotic peptide synthesized in Example 1 and CA-MA peptide (as a comparative group) were half-fold diluted consecutively from 25 μM/well, and added into the plate for culture at 37° C. for 6 hours. Finally, the MIC of each strain was determined by observing OD620 with a micro-titrate plate reader.
# Pseudomonas aeruginosa [7] = test: Visualization of anti-bacterial activity, colonies on plate; assay type: cell-based; conditions: 4×10^5 P. aeruginosa cells, 4 μM peptide, 2 hours at 37° C.; FIG. 2
# Procedure: as §3
# [8] = tested on: Human red blood corpuscles; test: Cytotoxicity: hemolysis capacity; assay type: cell-based; conditions: up to 12.5 μM
# Procedure: Human red blood corpuscles were diluted with PBS (pH 7.0) to the concentration of 8%, and loaded into each wells of 96-well plate. Synthetic peptide of the present invention was half-fold diluted consecutively from 12.5 μM/well, followed by reacting with the red blood corpuscles for 1 hour at 37° C. After centrifugation, OD414 was measured to determine the amount of hemoglobin in the supernatant. At this time, CA-MA peptide was used as a comparative group and melittin was used as a positive control. In order to investigate the level of hemolysis, 1% triton X-100 was added, and then OD was measured. Hemolysis capacity of triton X-100 was regarded as 100%, with which hemolysis capacity of the synthetic peptide was compared and calculated according to the below <Mathematical Formula 1>.
# % hemolysis=(OD A−OD B/OD C−OD B)×100
# Bacillus subtilis [9] = test: Anti-bacterial activity observation with SEM; assay type: cell-based; conditions: 0.78 μM, 30 minutes at 37° C.; FIG. 3
# Procedure: (§5) Bacillus subtilis (Gram-positive) and Pseudomonas aeruginosa (Gram-negative) cells were cultured in LB medium (1% bacto trypton, 0.5% bacto yeast extract, 1% sodium chloride) to mid-log phase, and the cells were diluted with 10 mM of Na-phosphate buffer containing 100 mM of NaCl) at the concentration of 10^8 cells/ml. Synthetic peptide of the present invention and CA-MA peptide (as a comparative group) were added into the diluted cell culture medium (final conc. 0.78 μM in B. subtilis culture, 1.56 μM in P. aeruginosa culture), followed by further culturing for 30 minutes at 37° C. 0.2 M Na-phosphate buffer containing 5% glutaraldehyde was added into the medium, and the cells were fixed for 2 hours at 4° C. The cells were filtered with isopore filters (0.2 μm pore size, Millipore, Bedford, Mass., USA), and washed with 0.1 M Na-cacodylate buffer (pH 7.4). The filters were treated with 1% osmium tertoxide and dehydrated.
# Pseudomonas aeruginosa [10] = test: Anti-bacterial activity observation with SEM; assay type: cell-based; conditions: 1.56 μM, 30 minutes at 37° C.; FIG. 4
# Procedure: as §5
# Bacillus subtilis [11] = test: Membrane dynamic condition, DPH fluorescence anisotropy; assay type: cell-based; conditions: 6.25 μM˜0.097 μM, 2 hours at 37° C.; FIG. 5A
# Procedure: (§6) The present inventors performed the below experiment in order to investigate the dynamic condition of lipid membrane of bacteria cells treated with synthetic peptide of the present invention. Particularly, B. subtilis (Gram-positive) and P. aeruginosa (Gram-negative) were cultured to mid-log phase in LB medium (1% bacto trypton, 0.5% bacto yeast extract, 1% sodium chloride). And the antibiotic peptide of the present invention and CA-MA peptide (as a comparative group) were treated (6.25 μM˜0.097 μM, half-fold diluted) thereto. Each strains were further cultured for 2 hours at 37° C. After fixing with 0.25% formaldehyde for 1 hour at room temperature, cultured cells were washed with PBS (pH 7.4), and then frozen in liquid nitrogen. For the fluorescent labeling, PBS (pH 7.4) was added until OD450 reached to 0.25, and DPH (1,6-diphenyl-1,3,5-hexatriene) dissolved in tetrahydrofuran was added (final conc. […]), followed by further culturing for 45 minutes at 37° C. Steady-state fluorescence anisotropy was determined by measuring the strength of fluorescence with spectrofluorometer (HITACHI F-3010, Tokyo, Japan) at 330 nm and 450 nm.
# Pseudomonas aeruginosa [12] = test: as above; assay type: cell-based; conditions: 6.25 μM˜0.097 μM, 2 hours at 37° C.; FIG. 5B
# Procedure: as §6
# [13] = tested on: Candida albicans (TIMM 1768); test: Anti-fungal activity, MIC by MTT assay; assay type: cell-based; conditions: summary of the fungi of Table 2
# Procedure: In order to measure the anti-fungal activity of the synthetic peptide of the present invention, the present inventors performed MTT assay with Candida albicans (TIMM 1768) and Tricosphoron beigelil (KCTC 7707). Particularly, PDB medium (20% potato infusion frum, 2% bacto dextrose) containing various fungi was loaded into the wells (100 μl/well) of 96-well plate. Antibiotic peptides of the present invention and CA-MA peptide (as a comparative group) were half-fold diluted consecutively, and added into the plate for further culturing. 10 μl of MTT solution ([…], 5 mg/ml) was added into each well followed by further culturing for 5-6 hours. Formazan produced by mitochondria enzymes of living cells was dissolved in 100 μl of 0.04 N HCl-isopropanol. Finally, OD570 was measured by using ELISA reader to determine the degree of MIC.
smiles,measurement,setting,value
CC(C)C[C@H](NC(=O)[C@H](CCCCN)NC(=O)[C@H](CCCCN)NC(=O)[C@H](CC(C)C)NC(=O)[C@H](CC(C)C)NC(=O)[C@H](CCCCN)NC(=O)[C@H](CCCCN)NC(=O)[C@H](CC(C)C)NC(=O)[C@H](CC(C)C)NC(=O)[C@@H]1CCCN1C(=O)[C@@H]1CCCN1C(=O)[C@@H]1CCCN1C(=O)[C@H](CCCCN)NC(=O)[C@H](CCCCN)NC(=O)[C@H](CC(C)C)NC(=O)[C@H](CC(C)C)NC(=O)[C@H](CCCCN)NC(=O)[C@H](CCCCN)NC(=O)[C@H](Cc1c[nH]c2ccccc12)NC(=O)[C@@H](N)CCCCN)C(=O)O [Synthetic peptide (SEQ ID. NO: 2)] (H-KWKKLLKKPPPLLKKLLKKL-OH; N-terminus and C-terminus assumed),NOAEL,[1],≥ 10 mg/kg
same,"clinical symptoms, weight change, death",SPF SD line rats,"did not cause any specific clinical symptoms, weight change, or death"
same,"hematological tests, biochemical tests of blood, autopsy",SPF SD line rats,No change was observed
same,colonies on LB plate,Bacillus subtilis [2],no colony was found
same,anti-cancer activity compared with CA-MA peptide,"[3]; 3 days, FIG. 6B",higher than that of CA-MA peptide
same,anti-cancer activity,[3]; over 10 μM concentration,complete restrain of cancer cell growth
same,anti-cancer activity,[3]; to the concentration of 1 μM,did not showed anti-cancer activity
same,anti-cancer activity compared with CA-MA peptide,"[4]; SNU 601, 3 days, FIG. 6C",higher than that of CA-MA peptide
same,anti-cancer activity,[4]; over 10 μM concentration,complete restrain of cancer cell growth
same,anti-cancer activity,[4]; to the concentration of 1 μM,did not showed anti-cancer activity
same,anti-cancer activity compared with CA-MA peptide,"[5]; Calu-6, 3 days, FIG. 6A",higher than that of CA-MA peptide
same,anti-cancer activity,[5]; over 10 μM concentration,complete restrain of cancer cell growth
same,anti-cancer activity,[5]; to the concentration of 1 μM,did not showed anti-cancer activity
same,antibiotic activity relative to CA-MA peptide,[6],around 4 times
same,"anti-bacterial activity on agar plate, compared to CA-MA",Pseudomonas aeruginosa [7],remarkable anti-bacterial activity
same,"cytotoxicity (hemolysis), in words",[8],did not show any cytotoxicity
same,"destroyed cells observed with SEM, versus control and CA-MA peptide",Bacillus subtilis [9],much more destroyed cells
same,"destroyed cells observed with SEM, versus control and CA-MA peptide",Pseudomonas aeruginosa [10],much more destroyed cells
same,"DPH-labeled fluorescent materials intercalated at lower position of membrane, compared to CA-MA peptide",Bacillus subtilis [11],15-20%
same,"DPH-labeled fluorescent materials intercalated at lower position of membrane, compared to CA-MA peptide",Pseudomonas aeruginosa [12],15-20%
same,anti-fungal activity relative to CA-MA peptide,[13],about 2 times
"CC[C@H](C)[C@H](NC(=O)CN)C(=O)NCC(=O)N[C@@H](C)C(=O)N[C@H](C(=O)N[C@@H](CC(C)C)C(=O)N[C@@H](CCCCN)C(=O)N[C@H](C(=O)N[C@@H](CC(C)C)C(=O)N[C@H](C(=O)N[C@H](C(=O)NCC(=O)N[C@@H](CC(C)C)C(=O)N1CCC[C@H]1C(=O)N[C@@H](C)C(=O)N[C@@H](CC(C)C)C(=O)N[C@H](C(=O)N[C@@H](CO)C(=O)N[C@@H](Cc1c[nH]c2ccccc12)C(=O)N[C@H](C(=O)N[C@@H](CCCCN)C(=O)N[C@@H](CCCNC(=N)N)C(=O)N[C@@H](CCCCN)C(=O)N[C@@H](CCCNC(=N)N)C(=O)N[C@@H](CCC(N)=O)C(=O)N[C@@H](CCC(N)=O)C(N)=O)[C@@H](C)CC)[C@@H](C)CC)[C@@H](C)O)[C@@H](C)O)C(C)C)C(C)C [Melittin, melittin]","cytotoxicity (hemolysis), in words",[8],high cytotoxicity
CC[C@H](C)[C@H](NC(=O)CNC(=O)[C@@H](NC(=O)[C@H](CCCCN)NC(=O)[C@H](CCCCN)NC(=O)[C@H](Cc1ccccc1)NC(=O)[C@H](CC(C)C)NC(=O)[C@H](CCCCN)NC(=O)[C@H](Cc1c[nH]c2ccccc12)NC(=O)[C@@H](N)CCCCN)[C@@H](C)CC)C(=O)NCC(=O)N[C@@H](CCCCN)C(=O)N[C@@H](Cc1ccccc1)C(=O)N[C@@H](CC(C)C)C(=O)N[C@@H](Cc1c[nH]cn1)C(=O)N[C@@H](CO)C(=O)N[C@@H](C)C(=O)N[C@@H](CCCCN)C(=O)N[C@@H](CCCCN)C(=O)N[C@@H](Cc1ccccc1)C(=O)O [CA-MA] (H-KWKLFKKIGIGKFLHSAKKF-OH),"cytotoxicity (hemolysis), in words",[8],did not show any cytotoxicity
